Data published in the NIST ThermoML archive (doi:10.1016/j.jct.2016.12.019).

Legend:
[1] = 100 kPa, Liquid; for viscosity: Capillary tube (Ostwald / Ubbelohde) method; for speed of sound: Frequency=2 MHz, Linear variable-path acoustic interferometer; for mass density: Vibrating tube method
[2] = xn = mol fraction of the nth substance listed; conditions: 100 kPa, Liquid, x2 = 0; for viscosity: Capillary tube (Ostwald / Ubbelohde) method; for speed of sound: Frequency=2 MHz, Linear variable-path acoustic interferometer; for mass density: Vibrating tube method

CCCCCCCCCO [nonan-1-ol]
[1]
Conditions	mass density [kg/m3]	speed of sound [m/s]	viscosity [mPa·s]
303.15 K	821.36	1357	7.809
308.15 K	817.54	1334	6.499
313.15 K	814.05	1313	5.665
318.15 K	808.97	1293.5	4.676

CCCCCCCCCCO [decan-1-ol] + CCN(CC)c1ccccc1
[2]
Conditions	mass density [kg/m3]	speed of sound [m/s]	viscosity [mPa·s]
303.15 K	822.89	1363.5	9.751
308.15 K	819.54	1344.2	8.138
313.15 K	815.95	1328.5	6.846
318.15 K	811.35	1320.5	5.879

CCCCCCCCO [octan-1-ol] + CCN(CC)c1ccccc1
[2]
Conditions	mass density [kg/m3]	speed of sound [m/s]	viscosity [mPa·s]
303.15 K	818.25	1333.5	6.405
308.15 K	814.72	1312.5	5.422
313.15 K	810.07	1295.4	4.625
318.15 K	805.52	1282.5	4.051

CCCCCCCCCO [nonan-1-ol] + CCN(CC)c1ccccc1
[2]
Conditions	mass density [kg/m3]	speed of sound [m/s]	viscosity [mPa·s]
303.15 K	821.36	1357	7.809
308.15 K	817.54	1334	6.499
313.15 K	814.05	1313	5.665
318.15 K	808.97	1293.5	4.676

CCN(CC)c1ccccc1 [N,N-diethylaniline]
[1]
Conditions	mass density [kg/m3]	speed of sound [m/s]	viscosity [mPa·s]
303.15 K	925.8	1432	1.711
308.15 K	921.8	1416	1.537
313.15 K	917.9	1398	1.4
318.15 K	913.8	1378	1.276
